Results published in publication PMC4750079, “Tackling amyloidogenesis in Alzheimer’s disease with A2V variants of Amyloid-β” (Scientific Reports, 2016).
Where a SMILES comes first, the peptide text is derived from it. [ ]: non-standard residue; d: D form.

Columns and labels:
Aβ1-42WT = target: T1, Aβ1-42WT (Homo sapiens, UniProt P05067); assay: Atomic force microscopy of Aβ1-42WT oligomerization; assay type: biochemical; conditions: Aβ1-42WT 100 μM co-incubated with peptide 1:4, pH 7.4, 4 °C, 24 h, AFM
T1 construct: Aβ1-42WT oligomers were formed following incubation of Aβ1-42WT at a final concentration of 100 μM; made in house; host or cells: chemical synthesis (solid-phase Fmoc), no expression host
T1 sequence (P05067 672-713 limits assumed): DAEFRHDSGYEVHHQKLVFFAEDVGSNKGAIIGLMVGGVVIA
Experimental: In polarized-light and EM studies, both peptides were used at 0.125 mM, molar ratio = 1:1 or 1:4 respectively, with 20 days incubation. […] E,F: Representative Tapping mode of AFM images as determined by amplitude error data of Aβ1-42WT oligomers. Aβ1-42WT peptide 100 μM in phosphate buffer 50 mM, pH 7.4 was incubated at 4 °C for 24 h alone (E) (Z range: -10/ + 10 mV) or in presence of Aβ1-6A2VTAT(D) (F) (Z range: -10/ + 25 mV). The molar ratio of Aβ1-42WT to Aβ1-6A2VTAT(D) was 1:4. Scale bar: 1 μm, inset: 200 nm. (G,H): height plot profiles obtained along different lines traced on the topographic AFM images.
Aβ1-42WT oligomers were formed following incubation of Aβ1-42WT at a final concentration of 100 μM in phosphate buffer 50 mM, pH 7.4 at 4 °C for 24 h, alone or in presence of Aβ1-6A2VTAT(D), at 1:4 molar ratio. Sample solutions were diluted to a final concentration of 10 μM of Aβ1-42WT with phosphate buffer and 50 μl of each solution was immediately added onto freshly cleaved mica at room temperature for 2 minutes. Samples were washed and dried under gentle nitrogen flow. AFM analyses were carried out on a Multimode AFM with a Nanoscope V system (Veeco/Digital Instruments). AFM images were analysed using the Scanning Probe Image Processor data analysis package. All the topographic patterns and SPIP characterization were verified via additional measurements on a minimum of five different, well separated areas.

OP50 E. coli = conditions: peptide 1 µg/µl, 24 h, 25 °C and 37 °C, MALDI TOF MS, small fraction cleaved at Gly 11
Experimental: (§1) The stability of Aβ1-6A2VTAT(D) peptide to protease digestion was also investigated. To this end, the peptide (1µg/µl) was incubated at 37 °C with 10 ng/µl of proteinase K and in the presence of OP50 E. coli. […] Samples were potted on a metallic plate (MTP 384 Ground Steel, Bruker) before and 24 h after incubation at 25 °C and 37 °C, and analyzed by MALDI TOF mass spectrometry (MS).

proteinase K = proteinase K (Parengyodontium album, UniProt P06873); conditions: peptide 1 µg/µl, 10 ng/µl proteinase K, 24 h, 25 °C and 37 °C, MALDI TOF MS; small fraction cleaved at Gly 11
Sequence of proteinase K (P06873 106-384, species assumed): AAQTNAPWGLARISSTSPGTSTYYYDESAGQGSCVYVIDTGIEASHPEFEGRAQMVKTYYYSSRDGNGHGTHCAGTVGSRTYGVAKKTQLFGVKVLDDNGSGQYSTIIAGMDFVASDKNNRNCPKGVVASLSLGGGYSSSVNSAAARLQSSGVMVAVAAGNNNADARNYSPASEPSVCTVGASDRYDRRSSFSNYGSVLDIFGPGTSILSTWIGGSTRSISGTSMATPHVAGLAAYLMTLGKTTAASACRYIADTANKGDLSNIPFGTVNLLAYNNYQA
Experimental: as §1

huAPPSwe/moAPP0/0 mice = assay: Pilot preclinical study in huAPPSwe/moAPP0/0 mice; assay type: in vivo, mouse
Experimental: Transgenic APP23 mice expressing the Swedish double mutation in the human APP gene[46] and knock-out for endogenous APP (huAPP^Swe/moAPP^0/0) were generated in our lab by crossing APP23 mice with APP^0/0 animals. Mice (n = 6) were treated intraperitoneally (i.p.) every day for 21 days with Aβ1-6A2VTAT(D) (10 mg/kg) or saline solution and culled 24 h after the last treatment.
(§2) The left hemisphere of each brain was homogenized in 7 volumes of 10 mM Tris-HCl, pH 7.4, added with cOmplete Mini Protease Inhibitors cocktail (Roche), sonicated for 1 min using an ultrasonic homogenizer (SONOPULS) and centrifuged at 100,000 xg for 1 h at 4 °C. The supernatant was saved as the soluble fraction; the pellet was extracted in 70% formic acid and neutralized with 20 volumes of 1 M Tris (insoluble fraction).
(§3) Aβ40, Aβ42 and aggregated Aβ were measured in both soluble and insoluble fractions by ELISA (Invitrogen). Each experiment was performed in triplicate. The analysis of APP processing followed the protocol described above. After centrifugation, the supernatant was collected as the SDS-soluble fraction, which was analyzed by western blot with the A8717 antibody (Sigma). Signal intensity of the bands was measured by Quantity One (BioRad).
(§4) Coronal slices of the right hemibrain were embedded in paraffin and cut (7μm); sections were de-waxed in xylene and hydrated through serial alcohols to water. After formic acid (80%) pre-treatment, sections were incubated overnight with anti-Aβ antibody (4G8, 1:4000; Covance). The primary antibody signal was detected with a biotinylated secondary antibody followed by horseradish streptavidin peroxidase and visualized with DAB. Amyloid deposition was quantified in mouse brain using Aβ immunostaining (4G8) and the staining intensity was evaluated semiquantitatively using a scale range from 0 to 5 by light microscopy. The assessment was conducted in two adjacent sections of the same brain area[49]. A parallel quantification of the Aβ plaque load was performed using image analysis software (NIS-elements-Nikon)[50][51][52].

APPswe/PS1dE9 mice = assay: Treatment of APPswe/PS1dE9 mice; assay type: in vivo, mouse; conditions: for amyloid burden (plaque count, area fraction): 4G8 immunohistochemistry
Excerpt: Heterozygous four-month-old female APPswe/PS1dE9 transgenic mice were used in this study. These mice express human APP carrying the Swedish mutation together with human presenilin 1 (PS1) carrying the pathogenic dE9 mutation. Animals were divided in 2 experimental groups (n = 10 each), treated i.p. once a week with saline solution or Aβ1-6A2VTAT(D) and culled 2.5 (intermediate time) and 5 months (final time) after treatment. In both mouse transgenic lines, the brain was removed and dissected into 2 hemibrains by midsagittal dissection. One half was immediately stored at […] for biochemical assays, the other immediately immersed in formalin (10%) overnight for immunohistochemical studies.
The Novel Object Recognition test (NOR) was used to examine the cognitive performance of animal models involved in preclinical studies, following well consolidated protocols. The results of the NOR were expressed by using:
- Discrimination index (time exploring novel object - time exploring familiar object)/(time exploring novel object + time exploring familiar object).
- Recognition index (RI): time exploring novel object/(time exploring novel object + time exploring familiar object) %.
as §2, §3, §4

[1] = i.p. daily for 21 days, vs saline, ELISA
[2] = i.p. 10 mg/kg once a week for 2.5 months, vs saline, ELISA
[3] = i.p. 10 mg/kg once a week for 5 months, vs saline

CC(C)[C@@H](NC(=O)[C@H](N)CC(=O)O)C(=O)N[C@H](CCC(=O)O)C(=O)N[C@H](Cc1ccccc1)C(=O)N[C@H](CCCNC(=N)N)C(=O)N[C@H](Cc1c[nH]cn1)C(=O)NCC(=O)NCC(=O)NCC(=O)NCC(=O)NCC(=O)N[C@H](CCCNC(=N)N)C(=O)N[C@H](CCCCN)C(=O)N[C@H](CCCCN)C(=O)N[C@H](CCCNC(=N)N)C(=O)N[C@H](CCCNC(=N)N)C(=O)N[C@H](CCC(N)=O)C(=O)N[C@H](CCCNC(=N)N)C(=O)N[C@H](CCCNC(=N)N)C(=O)N[C@H](CCCNC(=N)N)C(=O)O [Aβ1-6A2VTAT(D)] (H-[dD][dV][dE][dF][dR][dH]GGGGG[dR][dK][dK][dR][dR][dQ][dR][dR][dR]-OH; N-terminus assumed)
diameter of very small globular structures (~70%) (Aβ1-42WT): 5-8 nm
oligomeric structures of Aβ1-42WT detected (Aβ1-42WT): only rare oligomeric structures were detected
resistance to digestion with bacteria proteases (OP50 E. coli): largely resistant
resistance to digestion with proteinase K (proteinase K): largely resistant
intracerebral amyloid deposits (huAPPSwe/moAPP0/0 mice; 13-month-old mice, i.p. once a day for 3 weeks, 4G8 immunohistochemistry, plaque count): decrease of intracerebral amyloid deposits
effects on APP processing (C99:C83 ratio), short-term (huAPPSwe/moAPP0/0 mice; after 3 weeks of treatment, western blot): not observed after short-term treatment schedules
Aβ42 in the soluble fraction and Aβ40, Aβ42 and aggregated Aβ in the insoluble fraction (huAPPSwe/moAPP0/0 mice; [1]): not significantly lower
brain Aβ40 levels in the soluble fraction (huAPPSwe/moAPP0/0 mice; [1]): reduction of Aβ40 levels in the soluble fraction
brain aggregated Aβ (soluble fraction) (huAPPSwe/moAPP0/0 mice; [1]): decrease in aggregated Aβ
effects on APP processing (C99:C83 ratio), short-term (APPswe/PS1dE9 mice; after 2.5 months of treatment, western blot): not observed after short-term treatment schedules
side effect on brain (neuropathologic studies) (APPswe/PS1dE9 mice; chronic treatment, data not shown): did not result in any evident side effect on brain
Novel Object Recognition test scores (APPswe/PS1dE9 mice; i.p. 10 mg/kg once a week for 2.5 months): small, albeit not statistically significant, improvement
amyloid burden (plaque count, area fraction) (APPswe/PS1dE9 mice; i.p. 10 mg/kg once a week for 2.5 months, vs saline): reduction of amyloid burden
brain Aβ40 (APPswe/PS1dE9 mice; [2]): not changed compared to controls
brain Aβ42 in the insoluble fraction (APPswe/PS1dE9 mice; [2]): concomitant decrease in the insoluble fraction
brain Aβ42 in the soluble fraction (APPswe/PS1dE9 mice; [2]): increase of Aβ42 in the soluble fraction
brain aggregated Aβ, soluble and insoluble fraction (APPswe/PS1dE9 mice; [2]): reduced in both the compartments
Novel Object Recognition test, recognition and discrimination indexes (APPswe/PS1dE9 mice; [3]): preserved cognitive function
amyloid burden (plaque count, area fraction) (APPswe/PS1dE9 mice; [3]): unexpectedly increased
brain Aβ levels (Aβ40, Aβ42, aggregated Aβ) (APPswe/PS1dE9 mice; i.p. 10 mg/kg once a week for 5 months, vs saline, ELISA): no significant difference compared to mice treated with saline solution
C99:C83 ratio in brain (APP processing) (APPswe/PS1dE9 mice; i.p. every 7 days for 5 months, western blot densitometry): increase in the C99:C83 ratio
